Some test systems named below: SNB-75 CNS; MDA-MB-231 breast; NCI/ADR-RES ovarian; SK-OV-3 ovarian; HCC-2998 colon; SW-620 colon; NCI-H460 lung; HCT-116 colon; M14 melanoma; HOP-62 NSCLC.
What all share (assay): growth of human tumour cells (NCI), 48 h

SMILES strings stand for the structures. Several values for one entry are separate records, joined by “and”; a condition that tells them apart may be missing. Identical values can stand only once.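 Compound exposure: 48 hours, 5 concentrations, 96-well plates. GI50 marks 50% less growth. TGI is the concentration that stops growth completely.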

The values below come from PubChem BioAssay (NCI).

As to `CN1CCN(Cc2ccc(NC(=O)c3[nH]ncc3Nc3ccnc4ccsc34)cc2)CC1`, the GI50 in the assay with SNB-75 CNS was 0.222 µM; in the assay with MDA-MB-231 breast it was 3.56 µM; in the assay with NCI/ADR-RES ovarian it was 15.7 µM; in the assay on SK-OV-3 ovarian, 1.05 µM; in the assay on HCC-2998 colon, 2.75 µM; in the assay on SW-620 colon, 2.6 µM. Besides, the GI50 was 3.15 µM in the assay on NCI-H460 lung, 1.51 µM in the assay with HCT-116 colon, 3.69 µM with M14 melanoma and 2.82 µM in the assay with HOP-62 NSCLC. Moreover, the TGI with SNB-75 CNS was 3.54 µM; in the assay with MDA-MB-231 breast it was 9.71 µM; in the assay on NCI/ADR-RES ovarian, greater than 100 µM; in the assay with SK-OV-3 ovarian it was 23.5 µM; with HCC-2998 colon, 10.1 µM; in the assay on SW-620 colon it was 12 µM. For the same molecule, the TGI was 12 µM with NCI-H460 lung, 11.7 µM with HCT-116 colon, 16.9 µM with M14 melanoma and 14.2 µM in the assay with HOP-62 NSCLC.
Regarding `O=C1C=CC(=O)N1c1ccc2c(c1)Cc1cc(NC(=O)C(F)(F)F)ccc1-2`, the TGI was 31.3 µM with SNB-75 CNS; 32.3 µM in the assay with MDA-MB-231 breast; greater than 75.7 µM with NCI/ADR-RES ovarian; greater than 100 µM in the assay with SK-OV-3 ovarian; greater than 58.9 µM in the assay on HCC-2998 colon; 25.8 µM with SW-620 colon. The TGI was greater than 100 µM with NCI-H460 lung, 22.6 µM in the assay on HCT-116 colon, 44 µM in the assay on M14 melanoma and 50.7 µM in the assay on HOP-62 NSCLC.
As for `c1cncc(-c2cc(-c3cc(-c4cccnc4)n[nH]3)[nH]n2)c1`, the TGI in the assay on SNB-75 CNS, in the assay on MDA-MB-231 breast, with NCI/ADR-RES ovarian, with SK-OV-3 ovarian, with HCC-2998 colon and in the assay with SW-620 colon was greater than 100 µM throughout. The TGI in the assay on NCI-H460 lung, in the assay on HCT-116 colon, in the assay with M14 melanoma and with HOP-62 NSCLC was greater than 100 µM throughout.
`O=C1CN2CCC1C/C2=C\c1ccnc2c(Cl)cccc12` (stereo not given): the GI50 in the assay on SNB-75 CNS is greater than 100 µM; in the assay with MDA-MB-231 breast, 88.8 µM; with NCI/ADR-RES ovarian it was 39.2 µM; in the assay with SK-OV-3 ovarian, greater than 100 µM; with HCC-2998 colon it was greater than 100 µM; with SW-620 colon it was greater than 100 µM. The GI50 is 72.8 µM in the assay on NCI-H460 lung, 45 µM with HCT-116 colon, greater than 100 µM with M14 melanoma and greater than 100 µM in the assay with HOP-62 NSCLC. In addition, the TGI in the assay with SNB-75 CNS, in the assay with MDA-MB-231 breast, with NCI/ADR-RES ovarian, with SK-OV-3 ovarian, in the assay on HCC-2998 colon and in the assay with SW-620 colon was greater than 100 µM throughout. In addition, the TGI in the assay with NCI-H460 lung, in the assay on HCT-116 colon, in the assay with M14 melanoma and with HOP-62 NSCLC was greater than 100 µM each time.
In the case of `Cc1cc(Nc2ncc(Cl)c(Nc3ccccc3S(=O)(=O)C(C)C)n2)c(OC(C)C)cc1C1CCNCC1`, the GI50 was 1.2 µM with SNB-75 CNS; 1.37 µM with MDA-MB-231 breast; 1.52 µM in the assay with NCI/ADR-RES ovarian; 2.02 µM and 1.67 µM in the assay with SK-OV-3 ovarian; 0.991 µM in the assay on HCC-2998 colon; 0.776 µM with SW-620 colon. For the same molecule, the GI50 in the assay with NCI-H460 lung was 1.2 µM; in the assay with HCT-116 colon it was 1.24 µM; in the assay on M14 melanoma, 1.37 µM; in the assay with HOP-62 NSCLC it was 1.4 µM. Moreover, the TGI in the assay on SNB-75 CNS was 2.44 µM; with MDA-MB-231 breast, 2.71 µM; with NCI/ADR-RES ovarian it was 3.4 µM; in the assay with SK-OV-3 ovarian, 4.39 µM and 3.03 µM; with HCC-2998 colon, 2.21 µM; in the assay on SW-620 colon, 2.61 µM. Further, the TGI with NCI-H460 lung is 2.83 µM; in the assay on HCT-116 colon, 2.62 µM; in the assay with M14 melanoma, 2.9 µM; in the assay with HOP-62 NSCLC, 2.75 µM.
In the case of `C/C=C/C/C=C/CCC(=O)C1OC1C(N)=O` (stereo not given), the TGI in the assay with SNB-75 CNS was 27.8 µM; in the assay on MDA-MB-231 breast it was 31.1 µM; with NCI/ADR-RES ovarian it was 50.1 µM; in the assay with SK-OV-3 ovarian it was 81.8 µM; in the assay on HCC-2998 colon, 31.1 µM; in the assay with SW-620 colon it was 42.3 µM. For the same molecule, the TGI is 25.4 µM with NCI-H460 lung, 28.2 µM in the assay with HCT-116 colon, 29.2 µM with M14 melanoma and 15.8 µM in the assay with HOP-62 NSCLC.
Regarding `CCSc1nc(=S)[nH]c2[nH]ncc12`, the GI50 in the assay with SNB-75 CNS is greater than 100 µM; in the assay with MDA-MB-231 breast it was greater than 100 µM; with NCI/ADR-RES ovarian it was greater than 100 µM; in the assay with SK-OV-3 ovarian, 78.9 µM; in the assay on HCC-2998 colon, 59.1 µM; in the assay on SW-620 colon, 97.8 µM. The GI50 with NCI-H460 lung, in the assay with HCT-116 colon, in the assay on M14 melanoma and in the assay with HOP-62 NSCLC was greater than 100 µM in each case. The TGI with SNB-75 CNS, in the assay with MDA-MB-231 breast, with NCI/ADR-RES ovarian, with SK-OV-3 ovarian, with HCC-2998 colon and with SW-620 colon was greater than 100 µM in each case. Also, the TGI with NCI-H460 lung, in the assay on HCT-116 colon, in the assay with M14 melanoma and in the assay on HOP-62 NSCLC was greater than 100 µM in each case.
As for `O=C(c1cccs1)c1c(C(F)(F)F)n([O-])c2cc(C(F)(F)F)ccc2[n+]1=O`, the GI50 with SNB-75 CNS is 0.491 µM; in the assay with MDA-MB-231 breast it was 0.177 µM; in the assay with NCI/ADR-RES ovarian, 0.216 µM; in the assay on SK-OV-3 ovarian it was 0.758 µM; with HCC-2998 colon, 0.293 µM; in the assay with SW-620 colon, 0.14 µM. In addition, the GI50 in the assay with NCI-H460 lung was 0.198 µM; in the assay with HCT-116 colon, 0.0575 µM; in the assay on M14 melanoma it was 0.554 µM; with HOP-62 NSCLC, 0.174 µM. For the same molecule, the TGI with SNB-75 CNS was found to be 1.54 µM; in the assay with MDA-MB-231 breast, 0.345 µM; in the assay on NCI/ADR-RES ovarian, 0.585 µM; in the assay on SK-OV-3 ovarian, 1.87 µM; with HCC-2998 colon, 0.85 µM; with SW-620 colon, 0.304 µM. In addition, the TGI was 0.512 µM in the assay with NCI-H460 lung, 0.176 µM in the assay with HCT-116 colon, 1.19 µM with M14 melanoma and 0.337 µM in the assay with HOP-62 NSCLC.
On to `CCOC(=O)c1ccc(C(O)CC(=O)OC(C)(C)C)[nH]1` (stereo not given), for which the GI50 is 37.2 µM in the assay with SNB-75 CNS; 13 µM in the assay on MDA-MB-231 breast; 41 µM in the assay on NCI/ADR-RES ovarian; 32.1 µM in the assay with SK-OV-3 ovarian; 33 µM with HCC-2998 colon; 50.1 µM in the assay on SW-620 colon. Also, the GI50 in the assay on NCI-H460 lung is 35.9 µM; in the assay with HCT-116 colon, 23.2 µM; with M14 melanoma, 27 µM; with HOP-62 NSCLC, 45.1 µM. Further, the TGI with SNB-75 CNS, in the assay with MDA-MB-231 breast, in the assay with NCI/ADR-RES ovarian, in the assay on SK-OV-3 ovarian, in the assay with HCC-2998 colon and in the assay on SW-620 colon was greater than 100 µM in each case. The TGI in the assay with NCI-H460 lung is greater than 100 µM; with HCT-116 colon, 68.4 µM; in the assay with M14 melanoma it was 67.3 µM; in the assay with HOP-62 NSCLC, greater than 100 µM.
